Measured values taken from ChEMBL document CHEMBL4433254 (Bioorg Med Chem Lett, 2019).
≈ marks a conversion by molar mass, not a printed value.

Assays:
[1] = Lipophilicity, log D of compound at pH 7.4; details: buffer
[2] = Partition coefficient, log P of the compound; details: octanol/water
Candida albicans = experiment: Antifungal activity against Candida albicans; assay type: functional
Homo sapiens [3] = species: Homo sapiens; experiment: Selectivity index, ratio of IC50 for human CYP11B1 expressed in hamster fibroblasts to ratio of IC50 human CYP11B2 expressed in hamster fibroblasts
[4] = target: T1, Cytochrome P450 11B1, mitochondrial (Homo sapiens, UniProt P15538); experiment: Inhibition of human CYP11B1 expressed in hamster fibroblasts using deoxycorticosterone as substrate
T1 sequence (P15538 whole entry): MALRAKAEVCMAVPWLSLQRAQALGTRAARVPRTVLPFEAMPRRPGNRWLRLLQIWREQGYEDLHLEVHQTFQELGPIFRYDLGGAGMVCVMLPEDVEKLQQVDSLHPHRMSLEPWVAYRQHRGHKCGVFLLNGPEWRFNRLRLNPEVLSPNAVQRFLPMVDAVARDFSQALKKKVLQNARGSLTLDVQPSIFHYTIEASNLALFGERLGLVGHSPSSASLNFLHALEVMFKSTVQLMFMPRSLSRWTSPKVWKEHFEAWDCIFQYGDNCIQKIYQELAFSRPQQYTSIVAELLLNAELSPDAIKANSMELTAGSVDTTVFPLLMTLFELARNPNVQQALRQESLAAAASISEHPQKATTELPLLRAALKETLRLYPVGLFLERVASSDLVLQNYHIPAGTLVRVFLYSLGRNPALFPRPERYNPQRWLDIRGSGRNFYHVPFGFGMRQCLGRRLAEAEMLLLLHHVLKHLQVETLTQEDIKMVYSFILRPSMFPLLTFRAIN

[5] = target: T2, Cytochrome P450 11B2, mitochondrial (Homo sapiens, UniProt P19099); experiment: Inhibition of human CYP11B2 expressed in hamster fibroblasts using deoxycorticosterone as substrate
T2 sequence (P19099 whole entry): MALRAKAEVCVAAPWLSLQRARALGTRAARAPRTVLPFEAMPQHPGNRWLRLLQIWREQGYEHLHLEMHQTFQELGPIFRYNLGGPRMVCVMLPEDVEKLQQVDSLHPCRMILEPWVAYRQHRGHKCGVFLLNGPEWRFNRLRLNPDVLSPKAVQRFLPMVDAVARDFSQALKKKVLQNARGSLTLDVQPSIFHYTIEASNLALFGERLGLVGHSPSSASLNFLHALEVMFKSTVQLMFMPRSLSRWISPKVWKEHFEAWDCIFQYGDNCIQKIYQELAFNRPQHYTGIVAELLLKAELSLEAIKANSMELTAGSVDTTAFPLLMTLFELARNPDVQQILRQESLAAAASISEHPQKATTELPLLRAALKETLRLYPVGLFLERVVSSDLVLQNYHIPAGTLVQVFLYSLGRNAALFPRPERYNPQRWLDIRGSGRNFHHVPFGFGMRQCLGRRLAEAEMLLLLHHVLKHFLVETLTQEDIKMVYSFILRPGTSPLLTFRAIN

CYP11B1 = target: T3, CYP11B1 (Homo sapiens, UniProt P15538); experiment: Inhibition of CYP11B1 (unknown origin)
T3 sequence (P15538 whole entry): T1 sequence (P15538 whole entry)

Homo sapiens [6] = species: Homo sapiens; experiment: Selectivity index, ratio of IC50 for CYP11B1 (unknown origin) to ratio of IC50 for CYP11B2 (unknown origin)

SMILES	MIC90 (Candida albicans)	IC50 (CYP11B1)	Ratio IC50 (Homo sapiens [6])	other results
Clc1ccccc1C(c1ccccc1)(c1ccccc1)n1ccnc1 [CLOTRIMAZOLE]	1 µg/mL (≈ 2.9 µM)	–	–	logD [1]: 5.05; logP [2]: 5.05
CCC(=O)N1CCc2cc(-c3cccnc3)ccc21	–	–	–	Ratio IC50 (Homo sapiens [3]): 21; IC50 [4]: 4.74 µM; IC50 [5]: 0.228 µM
Cc1nnc2n1-c1c(F)cc(-c3cccnc3)cc1CC2	–	17 µM	272	–
Clc1ccc(COC(Cn2ccnc2)c2ccc(Cl)cc2Cl)c(Cl)c1 (stereo not given) [MICONAZOLE]	0.5 µg/mL (≈ 1.2 µM)	–	–	–
Clc1ccc(COC(Cn2ccnc2)c2ccc(Cl)cc2Cl)cc1 (stereo not given) [ECONAZOLE]	2 µg/mL (≈ 5.24 µM)	–	–	logD [1]: 5.25; logP [2]: 5.25
Fc1cc(-c2cccnc2)cc2c1-n1cnnc1CC2	–	16.1 µM	94	–
Cc1nnc2n1-c1cc(F)c(-c3cccnc3)cc1CC2	–	12.6 µM	96	–
OC(Cn1cncn1)(Cn1cncn1)c1ccc(F)cc1F [FLUCONAZOLE]	1 µg/mL (≈ 3.27 µM)	–	–	–
Fc1cc2c(cc1-c1cccnc1)CCc1nncn1-2	–	7.9 µM	32	–
CC(=O)N1CCN(c2ccc(OCC3COC(Cn4ccnc4)(c4ccc(Cl)cc4Cl)O3)cc2)CC1 (stereo not given) [KETOCONAZOLE]	0.25 µg/mL (≈ 0.47 µM)	–	–	–
